From the NIST ThermoML archive (doi:10.1016/j.jct.2011.02.018)

Assay: xn = mol fraction of the nth substance listed
Conditions: 101 kPa, Liquid, Vibrating tube method

COC(C)(C)C [2-methoxy-2-methylpropane] + CO
mass density [kg/m3]
Conditions | 303.15 K | 308.15 K
x1 = 0.01 | 781.19 | 776.42
x1 = 0.0201 | 780.24 | 775.46
x1 = 0.0301 | 779.26 | 774.46
x1 = 0.0402 | 778.32 | 773.51
x1 = 0.0502 | 777.44 | 772.61
x1 = 0.0601 | 776.57 | 771.73
x1 = 0.0696 | 775.75 | 770.9
x1 = 0.0799 | 774.88 | 770.02
x1 = 0.0888 | 774.12 | 769.25
x1 = 0.1008 | 773.16 | 768.27
x1 = 0.1498 | 769.36 | 764.43
x1 = 0.1945 | 766.21 | 761.24
x1 = 0.26 | 762.1 | 757.08
x1 = 0.3006 | 759.64 | 754.59
x1 = 0.3482 | 756.93 | 751.87
x1 = 0.3841 | 755.01 | 749.92
x1 = 0.4527 | 751.59 | 746.45
x1 = 0.5004 | 749.29 | 744.12
x1 = 0.5458 | 747.32 | 742.12
x1 = 0.6009 | 745.03 | 739.81
x1 = 0.6459 | 743.18 | 737.93
x1 = 0.7014 | 741.01 | 735.74
x1 = 0.7449 | 739.36 | 734.07
x1 = 0.7986 | 737.33 | 732.01
x1 = 0.8504 | 735.47 | 730.13
x1 = 0.8978 | 733.78 | 728.43
x1 = 0.9091 | 733.39 | 728.04
x1 = 0.9184 | 733.04 | 727.69
x1 = 0.9259 | 732.78 | 727.43
x1 = 0.9379 | 732.32 | 726.97
x1 = 0.9473 | 732 | 726.65
x1 = 0.9598 | 731.56 | 726.21
x1 = 0.9706 | 731.17 | 725.82
x1 = 0.9791 | 730.85 | 725.49
x1 = 0.9881 | 730.53 | 725.18
